{"source": "paper PMC4051504", "about": "“Structural and functional analysis of the human spliceosomal DEAD-box helicase Prp28” (Acta Crystallographica Section D: Biological Crystallography, 2014)", "target": "T1, hPrp28ΔN (Homo sapiens, UniProt Q9BUQ8)", "T1 construct": "gene DDX23; helicase domain plus short N-terminal extension, residues 338-820; GST tag cleaved with PreScission protease; E. coli BL21 Star (DE3)", "T1 sequence (Q9BUQ8 338-820)": "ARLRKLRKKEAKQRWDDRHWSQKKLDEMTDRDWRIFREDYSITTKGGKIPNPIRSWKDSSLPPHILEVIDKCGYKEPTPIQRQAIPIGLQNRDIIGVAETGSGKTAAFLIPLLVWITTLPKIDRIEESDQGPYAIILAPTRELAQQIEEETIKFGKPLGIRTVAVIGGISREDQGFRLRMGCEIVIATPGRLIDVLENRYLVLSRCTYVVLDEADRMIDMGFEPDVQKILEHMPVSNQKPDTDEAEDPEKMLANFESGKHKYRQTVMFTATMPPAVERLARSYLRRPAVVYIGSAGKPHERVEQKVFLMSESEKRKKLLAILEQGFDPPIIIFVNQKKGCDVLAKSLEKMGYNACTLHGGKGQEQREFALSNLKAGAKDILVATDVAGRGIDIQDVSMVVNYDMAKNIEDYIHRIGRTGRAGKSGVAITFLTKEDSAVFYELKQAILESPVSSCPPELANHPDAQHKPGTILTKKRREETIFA", "assay": "fluorescence titration, Trp emission at […] nm (excitation […] nm)", "type": "binding", "data": [{"smiles": "CNc1ccccc1C(=O)O[C@H]1[C@@H](O)[C@H](n2cnc3c(N)ncnc32)O[C@@H]1CO[P@@](=O)(O)O[P@](=O)(O)OP(=O)(O)O", "note": "[mant-ATP]", "values": [{"measurement": "Kd", "result": "> 400", "unit": "µM"}]}]}
